Test results: ChEMBL document CHEMBL1132706 (J Med Chem, 1999)

Tests used:
[1] = biological target: T1, Human immunodeficiency virus type 1 integrase (Human immunodeficiency virus 1, UniProt Q7ZJM1)
Description: Inhibition of HIV-1 integrase by radiolabeled oligonucleotide-based assay integration

[2] = biological target: T1, Human immunodeficiency virus type 1 integrase; remark: listed apart in the source
Description: Compound was evaluated for the inhibitory concentration against HIV-1 integrase by radiolabeled oligonucleotide-based assay 3''-processing

CEM-SS [3] = assay: Compound was evaluated for the cytoprotection of CEM-SS cells by XTT cytoprotection assay through the NCI AIDS Screen; Not reached due to cytotoxicity; assay type: functional, cell-based, Homo sapiens
CEM-SS [4] = assay: Compound was evaluated for the cytoprotection fo CEM-SS cells by XTT cytoprotection assay through the NCI AIDS Screen; assay type: functional, cell-based; details: Homo sapiens
CEM-SS [5] = assay: Compound was evaluated for the cytoprotection of CEM-SS cells by XTT cytoprotection assay through the NCI AIDS Screen; assay type: functional, cell-based; details: Homo sapiens
CEM-SS [6] = assay: Compound was evaluated for the effect of Order of Addition on Cytoprotection at dilution 333, Add at infection; assay type: functional, Homo sapiens
CEM-SS [7] = assay: Compound was evaluated for the effect of Order of Addition on Cytoprotection against HIV-1RF at dilution 100, Add at infection; assay type: functional, Homo sapiens
CEM-SS [8] = assay: Compound was evaluated for the effect of Order of Addition on Cytoprotection against HIV-1RF at dilution 100, Pretreat and add 1 uM; assay type: functional, Homo sapiens
CEM-SS [9] = assay: Compound was evaluated for the effect of Order of Addition on Cytoprotection against HIV-1RF at dilution 100, Pretreat and add 10 uM; assay type: functional, Homo sapiens
CEM-SS [10] = assay: Compound was evaluated for the effect of Order of Addition on Cytoprotection against HIV-1RF at dilution 100, Pretreat with 100 uM; assay type: functional, Homo sapiens
CEM-SS [11] = assay: Compound was evaluated for the effect of Order of Addition on Cytoprotection against HIV-1RF at dilution 1000, Add at infection; assay type: functional, Homo sapiens
CEM-SS [12] = assay: Compound was evaluated for the effect of Order of Addition on Cytoprotection against HIV-1RF at dilution 1000, Pretreat and add 1 uM; assay type: functional, Homo sapiens
CEM-SS [13] = assay: Compound was evaluated for the effect of Order of Addition on Cytoprotection against HIV-1RF at dilution 1000, Pretreat and add 10 uM; assay type: functional, Homo sapiens
CEM-SS [14] = assay: Compound was evaluated for the effect of Order of Addition on Cytoprotection against HIV-1RF at dilution 1000, Pretreat with 100 uM; assay type: functional, Homo sapiens
CEM-SS [15] = assay: Compound was evaluated for the effect of Order of Addition on Cytoprotection against HIV-1RF at dilution 333, Pretreat and add 10 uM; assay type: functional, Homo sapiens
CEM-SS [16] = assay: Compound was evaluated for the effect of Order of Addition on Cytoprotection against HIV-1RF at dilution 333, Pretreat with 100 uM; assay type: functional, Homo sapiens
CEM-SS [17] = assay: Compound was evaluated for the effect of Order of Addition on Cytoprotection against HIV-1RF at dilution 333,Pretreat and add 1 uM; assay type: functional, Homo sapiens
CEM-SS [18] = assay: Compound was evaluated for the effect of Order of Addition on Cytoprotection against HIV-1RF at dilution 333, Add at infection; assay type: functional, Homo sapiens
MT4 [19] = assay: Concentration of compound required to protect 50% of MT-4 cells against retroviral cytopathic effects by HIV-1 ([…]); assay type: functional, cell-based; details: Homo sapiens
MT4 [20] = assay: Concentration of compound required to reduce MT-4 cell viability by 50%; assay type: functional, cell-based; details: Homo sapiens

T1 sequence (Q7ZJM1 whole entry): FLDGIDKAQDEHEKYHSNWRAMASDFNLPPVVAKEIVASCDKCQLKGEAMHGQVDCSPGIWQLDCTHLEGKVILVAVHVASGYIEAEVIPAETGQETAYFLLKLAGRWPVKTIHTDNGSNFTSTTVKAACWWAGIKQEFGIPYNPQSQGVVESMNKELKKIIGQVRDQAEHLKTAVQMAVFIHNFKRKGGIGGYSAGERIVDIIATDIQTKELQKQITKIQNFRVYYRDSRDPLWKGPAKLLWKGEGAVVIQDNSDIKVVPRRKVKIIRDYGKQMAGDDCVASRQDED

Row | SMILES | IC50 [1] [µM] | IC50 [2] [µM] | IC50 (CEM-SS [5]) [µM] | also measured
1 | CC(=O)Oc1ccc(/C=C/C(=O)OCCCOC(=O)/C=C/c2ccc(OC(C)=O)c(OC(C)=O)c2)cc1OC(C)=O | > 333 | > 333 | – | –
2 | CC(=O)Oc1ccc(/C=C/C(=O)O[C@@H](C)[C@H](C)OC(=O)/C=C/c2ccc(OC(C)=O)c(OC(C)=O)c2)cc1OC(C)=O | > 333 | > 333 | 5.71 | –
3 | CC(=O)Oc1ccc(/C=C/C(=O)O[C@H]2CCCC[C@@H]2OC(=O)/C=C/c2ccc(OC(C)=O)c(OC(C)=O)c2)cc1OC(C)=O | > 333 | > 333 | 5.76 | –
4 | COC(=O)C(COC(=O)/C=C/c1ccc(OC(C)=O)c(OC(C)=O)c1)OC(=O)/C=C/c1ccc(OC(C)=O)c(OC(C)=O)c1 (stereo unspecified) | 10.1 | 10.1 | – | –
5 | O=C(/C=C/c1ccc(O)c(O)c1)O[C@H](C(=O)O)[C@H](OC(=O)/C=C/c1ccc(O)c(O)c1)C(=O)O [CHICORIC ACID] | – | – | – | Control (CEM-SS [6]): 73%; Control (CEM-SS [7]): 141%; Control (CEM-SS [8]): 56%; Control (CEM-SS [9]): 114%; Control (CEM-SS [10]): 108%; Control (CEM-SS [11]): 60%; Control (CEM-SS [12]): 50%; Control (CEM-SS [13]): 135%; Control (CEM-SS [14]): 168%; Control (CEM-SS [15]): 82%; Control (CEM-SS [16]): 59%; Control (CEM-SS [17]): 92%
6 | Cc1cn([C@H]2C[C@H](N=[N+]=[N-])[C@@H](CO)O2)c(=O)[nH]c1=O [ZIDOVUDINE] | – | – | – | Control (CEM-SS [7]): 35%; Control (CEM-SS [10]): 114%; Control (CEM-SS [11]): 5%; Control (CEM-SS [14]): 121%; Control (CEM-SS [18]): 3%; Control (CEM-SS [16]): 119%; EC50 (MT4 [19]): 5 nM; IC50 (MT4 [20]): 100 µM

Continued, in another order:

Row | IC50 [1] [µM] | IC50 [2] [µM] | SMILES | IC50 (CEM-SS [5]) [µM] | also measured
7 | 3.8 | 2.8 | COC(=O)[C@H](COC(=O)/C=C/c1ccc(OC(C)=O)c(OC(C)=O)c1)NC(=O)/C=C/c1ccc(OC(C)=O)c(OC(C)=O)c1 | – | –
8 | 7.5 | 27.5 | O=C(/C=C/c1ccc(O)c(O)c1)OCCCOC(=O)/C=C/c1ccc(O)c(O)c1 | – | EC50 (CEM-SS [3]): Not reached; IC50 (CEM-SS [4]): 13.9 µM
9 | 6.5 | > 27.5 | O=C(/C=C/c1ccc(O)c(O)c1)NCCOC(=O)/C=C/c1ccc(O)c(O)c1 | 9.22 | –
10 | 7.6 | > 24.8 | O=C(/C=C/c1ccc(O)c(O)c1)O[C@H]1CCCC[C@@H]1OC(=O)/C=C/c1ccc(O)c(O)c1 | 5.67 | EC50 (CEM-SS [3]): Not reached
11 | 7.8 | > 38.4 | C[C@H](OC(=O)/C=C/c1ccc(O)c(O)c1)[C@H](C)OC(=O)/C=C/c1ccc(O)c(O)c1 | 3.64 | EC50 (CEM-SS [3]): Not reached
12 | 3.2 | 2.8 | COC(=O)[C@@H](COC(=O)/C=C/c1ccc(OC(C)=O)c(OC(C)=O)c1)NC(=O)/C=C/c1ccc(OC(C)=O)c(OC(C)=O)c1 | – | –
13 | 1.7 | 3.3 | O=C(/C=C/c1ccc(O)c(O)c1)NC(COC(=O)/C=C/c1ccc(O)c(O)c1)C(=O)O (stereo unspecified) | – | –
